Entries after “also recorded” stand apart in the source; their conditions may differ. Like-named read-outs stand apart in the source and are kept apart here.
Assays:
[1] = test system: hormone receptor-positive breast cancer MCF-7 cell line; assay: Cytotoxicity, resazurin assay, 96 h, MCF-7; type: cell-based; conditions: for IC50 / cytotoxic activity against MCF-7 (in words): MCF-7 cells; for IC50: 96 h, read-out: MCF-7 (IC50 and SD); for Selectivity Index (SI) MCF-7: IC50 in MCF12A / IC50 in MCF-7
Description: (§1) The cytotoxicity and IC50 values of the isolated compounds were evaluated in three cell lines, namely, the HCC70 basal triple-negative breast cancer (TNBC) cell line (ATCC: CRL-2315), the hormone receptor-positive breast cancer MCF-7 cell line (ATCC: HTB-22) and the non-tumorigenic breast epithelial cell line MCF12A (ATCC: CRL-10782) using the resazurin assay. The cells were seeded at a density of 5000 cells/well in a 96-well plate and allowed to attach overnight at 37 °C and 9% CO2. The cells were then treated with DMSO as vehicle control (0.2% vM), paclitaxel (Sigma-Aldrich, St. Louis, USA) as a positive control (0.32 to 200 nm) and a six-point range concentration (0.32 to 200 μM) of the isolated pure compounds and incubated for 96 h at 37 DC in a humidified 9% CO2 incubator. Resazurin ([…]) was added to the cells, and the cells were incubated for 2–4 h at 37 °C in 9% CO2. Fluorescence readings were obtained on a Spectramax spectrophotometer (excitation and emission wavelength set to 560 nm and 590 nm, respectively). The experiment was performed in triplicate, and the data was analyzed using GraphPad Prism Inc., (Version 4, USA) with a half-maximal inhibitory concentration (IC50 values) determined by non-linear regression. A selectivity index (SI) was determined for each compound to determine its therapeutic significance in cancerous cells. It was calculated as follows: Selectivity index (SI) = IC50 of compound in MCF12A/IC50 of compound in cancer line
(§2) SI function is a crucial metric for assessing a compound’s potential safety, with values below 1 indicating toxicity and those above 10 implying high selectivity for further investigation.

[2] = test system: HCC70 basal triple-negative breast cancer (TNBC) cell line; assay: Cytotoxicity, resazurin assay, 96 h, HCC70; type: cell-based; conditions: for IC50: 96 h, read-out: HCC70 (IC50 and SD); for Selectivity Index (SI) HCC70: IC50 in MCF12A / IC50 in HCC70
Description: as §1, §2

[3] = test system: non-tumorigenic breast epithelial cell line MCF12A; assay: Cytotoxicity, resazurin assay, 96 h, MCF-12A; type: cell-based; conditions: MCF-12A cells; for IC50: 96 h, read-out: MCF-12A (IC50 and SD)
Description: as §1, §2

NF-kappa B = conditions: cited from earlier work
[4] = test system: leukemic cell line (L1210); set-up: method as in PMID 12612427; conditions: cited from earlier work
[5] = Homo sapiens, MCF7, 96 h, resazurin, triplicate
[6] = Homo sapiens, HCC70, 96 h, HCC70 cells, resazurin, triplicate
[7] = Homo sapiens, MCF-12A, resazurin, triplicate
[8] = resazurin, triplicate, listed as 13R-Nepetaefolin (2)

CC(=O)O[C@@H]1C[C@@]2(CO2)[C@]2(CC[C@@]3(C=COC3)O2)[C@]23CCC[C@](C)(C(=O)OC2)[C@H]13 [Compound 1, 13S-nepetaefolin]
IC50 [1, 5]: > 200000 nM
Selectivity Index (SI) MCF-7 [1]: <0.132
IC50 ([1]; resazurin, triplicate, listed as 13S-Nepetaefolin (1)): > 200000 nM
IC50 [2, 6]: 24600 ± 1180 nM
Selectivity Index (SI) HCC70 ([2]; listed as 13S-Nepetaefolin (1)): 1.08
Selectivity Index (SI) HCC70 ([2]; listed as 13S-nepetaefolin (1)): 1.077
IC50 [3, 7]: 26600 ± 1320 nM

CC(=O)O[C@@H]1C[C@@]2(CO2)[C@]2(CC[C@]3(C=COC3)O2)[C@]23CCC[C@](C)(C(=O)OC2)[C@H]13 [Compound 2, nepetaefolin]
IC50 [1, 5]: > 200000 nM
IC50 [1, 8]: > 200000 nM
cytotoxic activity against HCC70 (in words) ([2]; HCC70 cells): no activity; also recorded: no such effects
IC50 ([2]; HCC70 cells, resazurin, triplicate, listed as 13R-Nepetaefolin (2)): > 200000 nM
IC50 [2, 6]: > 200000 nM
IC50 [3, 7]: > 200000 nM
IC50 [3, 8]: > 200000 nM

CC(=O)O[C@@H]1C[C@@H](C)[C@](O)(CCc2ccoc2)[C@]23CCC[C@](C)(C(=O)OC2)[C@H]13 [Compound 3, dubiin]
IC50 [1, 5]: > 200000 nM
cytotoxic activity against MCF-7 (in words) [1]: non-toxic
IC50 [2, 6]: 127900 ± 1230 nM
Selectivity Index (SI) HCC70 ([2]; listed as dubiin (3)): 1.564
IC50 [3, 7]: > 200000 nM
cytotoxic activity against MCF-12A (in words) [3]: non-toxic

CC(=O)O[C@@H]1C[C@@]2(CO2)[C@](O)(CCc2ccoc2)[C@]23CCC[C@](C)(C(=O)OC2)[C@H]13 [Compound 4, nepetaefuran]
IC50 [1, 5]: > 200000 nM
cytotoxic activity against MCF-7 (in words) [1]: no cytotoxic activity
anti-inflammatory activity, LPS pathway / NF-kappa B transactivation (in words) (NF-kappa B): suppression of the transactivation of NF-kappa B
IC50 [2, 6]: 73700 ± 1100 nM
Selectivity Index (SI) HCC70 ([2]; listed as nepetaefuran (4)): 2.715
IC50 [3, 7]: > 200000 nM
cytotoxic activity against MCF-12A (in words) [3]: no cytotoxic activity

C[C@@]12CCC[C@]3(C)C(=O)O[C@H](C[C@@]4(CO4)[C@]1(O)CCc1ccoc1)[C@H]23 [Compound 5, leonotin]
cytotoxic activity against leukemic cell lines (in words) [4]: cytotoxic activity

CC(=O)O[C@H]1C(=O)[C@@]2(C)[C@H]([C@H](OC(=O)c3ccccc3)[C@]3(O)C[C@H](OC(=O)[C@H](O)[C@@H](NC(=O)c4ccccc4)c4ccccc4)C(C)=C1C3(C)C)[C@]1(OC(C)=O)CO[C@@H]1C[C@@H]2O [Paclitaxel, paclitaxel, reference compound]
IC50 ([1]; Homo sapiens, MCF7, 96 h, positive control in nM): 2.41 ± 1.11 nM
Selectivity Index (SI) MCF-7 [1]: 6.71
IC50 ([2]; Homo sapiens, HCC70, 96 h, HCC70 cells, positive control in nM): 3.92 ± 1.03 nM
Selectivity Index (SI) HCC70 [2]: 4.12
IC50 ([3]; Homo sapiens, MCF-12A, positive control in nM): 16.2 ± 1.08 nM

leonotinin [Compound 6]
cytotoxic activity against leukemic cell lines (in words) [4]: cytotoxic activity
cytotoxic activity against MCF-7 (in words) [1]: no cytotoxic activity
IC50 ([1]; resazurin, triplicate): > 200000 nM
anti-inflammatory activity, LPS pathway / NF-kappa B transactivation (in words) (NF-kappa B): suppression of the transactivation of NF-kappa B
IC50 ([2]; HCC70 cells, resazurin, triplicate): 94900 ± 1100 nM
Selectivity Index (SI) HCC70 ([2]; listed as leonotinin (6)): 2.108
cytotoxic activity against MCF-12A (in words) [3]: no cytotoxic activity
IC50 ([3]; resazurin, triplicate): > 200000 nM

From paper PMC12110735 (Diseases, 2025)
